US20100093748A1, “SUBSTITUTED PIPERIDINES HAVING PROTEIN KINASE INHIBITING ACTIVITY” (ASTEX THERAPEUTICS LIMITED, priority 2006, published 2010)

System: phosphorylation of Serine-9 residue in Glycogen Synthase Kinase-3beta as surrogate marker of cellular PKB (Akt) activity
Experiment: In vitro MDA-MB-468 human breast adenocarcinoma GSK-3 phosphorylation assay
Type: cell-based
Settings: MDA-MB-468 cells, 2 hours compound incubation, mean IC50, read-out: Cell pGSK3b IC50
Description: This assay determines the ability of test compounds to inhibit phosphorylation of Serine-9 residue in Glycogen Synthase Kinase-3beta (GSK-313) as a surrogate marker of cellular PKB (Akt) activity, as assessed using Acumen Explorer Fluorescent Plate-Reader technology. A MDA-MB-468 human breast adenocarcinoma cell line (LGC Promochem, Teddington, Middlesex, UK, Catalogue No. HTB-132) was routinely maintained in Dulbecco's modified Eagle's growth medium (DMEM; Invitrogen Limited, Paisley, UK Catalogue No. 11966-025) containing 10% heat-inactivated foetal calf serum (FCS; Sigma, Poole, Dorset, UK, Catalogue No. F0392) and 1% L-glutamine (Gibco, Catalogue No. 25030-024) at 37° C. with 5% CO2 up to a confluency of 70-90%.
For the phosphorylation assay, the cells were detached from the culture flask using Trypsin-EDTA (Invitrogen Limited, Catalogue No. 25300-062) and seeded into the wells of a black transparent-bottom Corning Costar Polystyrene 96 well plate (Fisher Scientific UK, Loughborough, Leicestershire, UK; Catalogue No. 3904 and DPS-130-020K) at a density of 5000 cells per well in 100 μl of complete growth media. The cells were incubated overnight at 37° C. with 5% CO2 to allow them to adhere.
On day 2, the cells were treated with test compounds and incubated for 2 hours at 37° C. with 5% CO2. Test compounds were prepared as 10mM stock solutions in DMSO and dosed directly to required concentration into test wells using non-contact (acoustic dispensing of multiple 2.5 nl droplets directly into assay wells) ECHO dosing technology (Labcyte Inc Sunnyvale, Calif., USA). Each plate contained control wells without test compound.
20 μl of fixing buffer (Phosphate Buffered Saline (PBS) containing 10% formaldehyde; Sigma; Catalogue No. F1635) was then added to each well to give a final well concentration 1.6%. Plates were then incubated for 30 minutes at room temperature prior to the fixative being removed. Each well was washed once with 250 μl of PBS and then 50 μl PBS added to each well. PBS was then aspirated and cells permeabilised and blocked by incubating each well with 50 μl of permeabilisation/blocking buffer (PBS containing 0.5% Tween 20 (Sigma; Catalogue No. P5927) and 5% Marvel Milk Powder (Andrews Pharmacy Ltd, Macclesfield, Cheshire, UK; Catalogue No. APC100199)) for 1 hour at room temperature prior to staining.
Following removal of Perm/Block buffer, 50 μl of primary anti-phospho-GSK-3β antibody (Cell Signalling Technology (New England Biolabs (Uk) Ltd.), Hitchin, Hertfordshire, UK; Catalogue No.9336 diluted 1:400 in Blocking buffer (PBS containing 5% Marvel and 0.05% Tween/Polysorbate 20) was added to each well and incubated overnight at 4° C.
Each well was washed three times in 250 μl of wash buffer (PBS containing 0.05% polysorbate 20), and cells incubated for 1 hour at room temperature with 50 μl of secondary fluorescently-labelled anti-rabbit Alexa Fluor 488 antibody (Molecular Probes, Invitrogen Limited, Catalogue No. A11008) diluted 1:750 in blocking buffer. Plates were washed three times in 250 μl of wash buffer and stored containing 50 μl of PBS at 4° C. until required.
Plates were analysed using an Acumen Explorer Plate-reader to quantify level of fluorescent signal that represents quantity of phosphorylated-GSK-313.
IC50 calculation—IC50 is the concentration of compound required to give 50% effect over the range of activity affected by the compound, between maximum (no compound) and minimum (excess level of compound) response control data. IC50 values were determined by fitting background corrected, dose response assay data to a 4 parameter logistic curve fit equation model with the minimum response set to zero. This was done using an in-house developed algorithm within the Origin graphing software package (OriginLab Corporation, Northampton, Mass., USA). […]

Compound	IC50
NC1(c2nc3cc(-n4ccnc4)ccc3[nH]2)CCN(c2ncnc3[nH]ccc23)CC1 [Example 56, 4-(5-imidazol-1-yl-1H-benzimidazol-2-yl)-1-(7H-pyrrolo[2,3-d]pyrimidin-4-yl)piperidin-4-amine]	5500 nM
NC1(c2nc3cccnc3[nH]2)CCN(c2ncnc3[nH]ccc23)CC1 [Example 55, 4-(3H-imidazo[5,4-b]pyridin-2-yl)-1-(7H-pyrrolo[2,3-d]pyrimidin-4-yl)piperidin-4-amine]	2900 nM
NC1(c2nc3c(-c4ccoc4)cccc3[nH]2)CCN(c2ncnc3[nH]ncc23)CC1 [Example 111, 4-(4-furan-3-yl-1H-benzo[d]imidazol-2-yl)-1-(1H-pyrazolo[3,4-d]pyrimidin-4-yl)piperidin-4-amine]	110 nM
NC1(c2nc3cc(-c4ccoc4)ccc3[nH]2)CCN(c2ncnc3[nH]ccc23)CC1 [Example 69, 4-(5-furan-3-yl-1H-benzimidazol-2-yl)-1-(7H-pyrrolo[2,3-d]pyrimidin-4-yl)piperidin-4-amine]	1600 nM
NC1(c2nc3c(O)cccc3[nH]2)CCN(c2ncnc3[nH]ccc23)CC1 [Example 11, 2-[4-Amino-1-(7H-pyrrolo[2,3-d]pyrimidin-4-yl)-piperidin-4-yl]-1H-benzoimidazol-4-ol]	160 nM
Cc1cc(Cl)cc2nc(C3(N)CCN(c4ncnc5[nH]ccc45)CC3)[nH]c12 [Example 58, 4-(5-Chloro-7-methyl-1H-benzo[d]imidazol-2-yl)-1-(7H-pyrrolo[2,3-d]pyrimidin-4-yl)piperidin-4-amine]	1400 nM
NC1(c2nc3ccc(Cl)cc3[nH]2)CCN(c2ncnc3[nH]cnc23)CC1 [Example 21, 4-(6-chloro-1H-benzoimidazol-2-yl)-1-(9H-purin-6-yl)-piperidin-4-ylamine]	250 nM
Cn1cc(-c2cccc3[nH]c(C4(CN)CCN(c5ncnc6[nH]ccc56)CC4)nc23)cn1 [Example 100]	14 nM
COc1ccc(Oc2ccc3[nH]c(C4(N)CCN(c5ncnc6[nH]ccc56)CC4)nc3c2)cc1 [Example 64, 4-(5-(4-Methoxyphenoxy)-1H-benzo[d]imidazol-2-yl)-1-(7H-pyrrolo[2,3-d]pyrimidin-4-yl)piperidin-4-amine]	380 nM
NCC1(c2nc3cc(Br)ccc3[nH]2)CCN(c2ncnc3[nH]ccc23)CC1 [Example 89E, (4-(5-Bromo-1H-benzo[d]imidazol-2-yl)-1-(7H-pyrrolo[2,3-d]pyrimidin-4-yl)piperidin-4-yl)methanamine]	81 nM
CS(=O)(=O)c1ccccc1-c1cccc2nc(C3(N)CCN(c4ncnc5[nH]ccc45)CC3)[nH]c12 [Example 112, 4-[7-(2-methylsulfonylphenyl)-1H-benzimidazol-2-yl]-1-(7H-pyrrolo[3,2-e]pyrimidin-4-yl)piperidin-4-amine]	300 nM
NCC1(c2nc3c(C4CCOC4)cccc3[nH]2)CCN(c2ncnc3[nH]ccc23)CC1 (stereo not shown) [Example 101, [4-[4-(oxolan-3-yl)-1H-benzimidazol-2-yl]-1-(7H-pyrrolo[3,2-e]pyrimidin-4-yl)piperidin-4-yl]methanamine]	9.3 nM
NC1(c2nc3cc(Br)ccc3[nH]2)CCN(c2ncnc3[nH]ccc23)CC1 [Example 68B, 4-(5-bromo-1H-benzo[d]imidazol-2-yl)-1-(7H-pyrrolo[2,3-d]pyrimidin-4-yl)piperidin-4-amine]	460 nM
COc1cccc(-c2ccc3[nH]c(C4(N)CCN(c5ncnc6[nH]ccc56)CC4)nc3c2)c1 [Example 76, 4-[5-(3-methoxyphenyl)-1H-benzimidazol-2-yl]-1-(7H-pyrrolo[2,3-d]pyrimidin-4-yl)piperidin-4-amine]	6400 nM
Cn1c(C2(N)CCN(c3ncnc4[nH]ccc34)CC2)nc2ccccc21 [Example 54, 4-(1-methylbenzimidazol-2-yl)-1-(7H-pyrrolo[2,3-d]pyrimidin-4-yl)piperidin-4-amine]	> 2600 nM
CCN(CC)S(=O)(=O)c1ccc2[nH]c(C3(N)CCN(c4ncnc5[nH]ccc45)CC3)nc2c1 [Example 59, 2-(4-amino-1-(7H-pyrrolo[2,3-d]pyrimidin-4-yl)piperidin-4-yl)-N,N-diethyl-1H-benzo[d]imidazole-5-sulfonamide]	1900 nM
NC1(c2nc3cc(F)c(Cl)cc3[nH]2)CCN(c2ncnc3[nH]ccc23)CC1 [Example 52, 4-(6-chloro-5-fluoro-1H-benzimidazol-2-yl)-1-(7H-pyrrolo[2,3-d]pyrimidin-4-yl)piperidin-4-amine]	1300 nM
Cc1ccc2[nH]c(C3(CN)CCN(c4ncnc5[nH]cc(Br)c45)CC3)nc2c1 [Example 98, (1-(5-bromo-7H-pyrrolo[2,3-d]pyrimidin-4-yl)-4-(5-methyl-1H-benzo[d]imidazol-2-yl)piperidin-4-yl)methanamine]	180 nM
CN1CCN(c2ccc3[nH]c(C4(N)CCN(c5ncnc6[nH]ccc56)CC4)nc3c2)CC1 [Example 60, 4-(5-(4-methylpiperazin-1-yl)-1H-benzo[d]imidazol-2-yl)-1-(7H-pyrrlo[2,3-d]pyrimidin-4-yl)piperidin-4-amine]	8600 nM

More lines, now with the values ahead:

IC50	Compound
200 nM	CS(=O)(=O)c1ccc(-c2cccc3[nH]c(C4(N)CCN(c5ncnc6[nH]cnc56)CC4)nc23)cc1 [Example 105, 4-[4-(4-methylsulfonylphenyl)-1H-benzimidazol-2-yl]-1-(9H-purin-6-yl)piperidin-4-amine]
5100 nM	CS(=O)(=O)c1cccc(-c2ccc3[nH]c(C4(N)CCN(c5ncnc6[nH]ccc56)CC4)nc3c2)c1 [Example 75, 4-[5-(3-methylsulfonylphenyl)-1H-benzimidazol-2-yl]-1-(7H-pyrrolo[2,3-d]pyrimidin-4-yl)piperidin-4-amine]
130 nM	Cn1cc(-c2cccc3[nH]c(C4(N)CCN(c5ncnc6[nH]ccc56)CC4)nc23)cn1 [Example 86, 4-(4-(1-Methyl-1H-pyrazol-4-yl)-1H-benzo[d]imidazol-2-yl)-1-(7H-pyrrolo[2,3-d]pyrimidin-4-yl)piperidin-4-amine]
52 nM	NC1(c2nc3c(-c4ccoc4)cccc3[nH]2)CCN(c2ncnc3[nH]cnc23)CC1 [Example 106, 4-(4-furan-3-yl-1H-benzimidazol-2-yl)-1-(9H-purin-6-yl)piperidin-4-amine]
52 nM	NC1(c2nc3c(-c4cncnc4)cccc3[nH]2)CCN(c2ncnc3[nH]ccc23)CC1 [Example 91, 4-(4-pyrimidin-5-yl-1H-benzimidazol-2-yl)-1-(7H-pyrrolo[3,2-e]pyrimidin-4-yl)piperidin-4-amine]
33 nM	NC1(c2nc3c(-c4ccncc4)cccc3[nH]2)CCN(c2ncnc3[nH]ccc23)CC1 [Example 92, 4-(4-pyridin-4-yl-1H-benzimidazol-2-yl)-1-(7H-pyrrolo[3,2-e]pyrimidin-4-yl)piperidin-4-amine]
85 nM	NC1(c2nc3c(-c4cccnc4)cccc3[nH]2)CCN(c2ncnc3[nH]ccc23)CC1 [Example 79]
47 nM	CS(=O)(=O)Cc1ccccc1-c1cccc2[nH]c(C3(N)CCN(c4ncnc5[nH]ccc45)CC3)nc12 [Example 116, 4-(4-(2-(methylsulfonylmethyl)phenyl)-1H-benzo[d]imidazol-2-yl)-1-(7H-pyrrolo[2,3-d]pyrimidin-4-yl)piperidin-4-amine]
250 nM	NC1(c2nc3c(-c4cn[nH]c4)cccc3[nH]2)CCN(c2ncnc3[nH]ccc23)CC1 [Example 93, 4-[4-(1H-pyrazol-4-yl)-1H-benzimidazol-2-yl]-1-(7H-pyrrolo[3,2-e]pyrimidin-4-yl)piperidin-4-amine]
